From patent publication US6500823B1, “Unsaturated hydroximic acid derivatives as per abstract inhibitors” (N-Gene Research Laboratories, Inc., priority 1998, dated 2002) come the findings set out here.

Assay [1] concerns mouse HSP-70 gene promoter in mouse fibroblast L929 cells. Kind of assay: HSP-70 promoter-luciferase reporter gene assay. The class given is cell-based. Conditions: Control = 100; 10 μl of 10^-2 M solution to 1 ml culture, 30 min, 1 hour regeneration. The source says: The activity of HSP-70 was studied by reporter gene assay forming a DNA hybrid. To the promoter sequence of HSP-70 encoding the heat shock protein was fused a gene of a protein that can be detected by a well-measurable enzyme activity. Biotechnological processes were used. As reporter gene luciferase enzyme was employed, the activity of which can be well determined by luminescence measurement. If the promoter of the gene of the luciferase enzyme is substituted by the promoter of the HSP-70 gene, then the change in the activity of the luciferase enzyme i.e. the change of the frequency of the transcription from the gene correlates with the frequency of the transcription of the HSP-70 gene that proceeds in the given circumstances. In this way, if a substance or process influences the expression of the HJSP-70 gene, the effect can be studied through the measurement of the luciferase enzyme activity. The effect of the substances to be tested on the HSP-70 expression was studied in such an experimental system.
A double-stranded DNA circular molecule i.e. a plasmid containing the HSP-70 reporter gene was constructed to perform the measurements. An almost 600 bp long sequence of the mouse HSP-70 gene promoter (5′ direction from the start site of the gene) was fused to the coding sequence of the luciferase gene originated from Photymus pyralis. The applied promoter sequence contained several protein binding sites facilitating the expression of the HSP-70 gene. The HSP promoter-luciferase heterologous gene construct was built in a pBR based plasmid vector that can be selected for neomycin. This HSP-70-luciferase plasmid was transfected into mouse fibroblast L929 cells. The assay was performed as follows.
The HSP-70-luc plasmid containing L929 cells are grown in DMEM (Dulbecco's Modified Eagle's Medium) medium supplemented with 5% FCS (Fetal Calf Serum). 10^4 cells are plated in the wells of a 24-well Costar cell culture plate in 1 ml of culture medium. Test substances are dissolved in PBS (Phosphate Buffered Saline) in 10^−2 M concentration. After attachment of the cells (3-4 hours after plating) 10 μl of the solution are given to the cultures and cells are incubated for 30 min. at 37° C. in a CO2 thermostat. Culture medium is then changed for fresh one (without test substance) and cells are allowed to regenerate for 1 hour at 37° C., then once washed with PBS. After removal of PBS 40 μl of 1× lysis buffer are added to the cells, and the samples are kept on ice for 30 minutes. Then the samples are transferred into Eppendorf vials and centrifuged at 14000 rpm for 20 min at 4° C. 5 μl of the supernatant is added to 25 μl of luciferase assay buffer and the luminescence of the samples is measured for 25 seconds in a luminometer.
A general note: In a reporter assay the amount or activity of a reporter protein is the signal.

The subject of the next assay is male SPRD rats. Kind of assay: Reperfusion induced arrhythmia after LAD occlusion, survival rate. Conditions: for responders at 1 mg/kg / responders at 5 mg/kg: Rattus norvegicus, iv, read-out: % SURV; for responders at 5 mg/kg: control 15.38; for effect on survival of reperfusion arrhythmia, in words: compared with Example 2 (100% survival). The class given is in vivo, rat. As for the experimental part:
Experiments were carried out in male SPRD rats (acceptable body weight range: 300-350 g). The animals were anesthetized with sodium pentobarbital (Nembutal®: 60 mg/kg intraperitoneally) and remained breathing spontaneously. The animals were ventilated with respirator (MTA Kutesz) by using trachea cannule which was inserted after tracheotomy. The standard lead of the ECG II is monitored. Right femoral artery was catheterized and connected to a pressure transducer (BPR-01, Experimetria, Hungary), a preamplifier and pulsotachometer (HG-M, Experimetria, Hungary) for arterial blood pressure and heart rate measurement, respectively. The external jugular vein was cannulated for drug administration. After thoracotomy a silk (braided, coated 4-0) was placed under the left anterior coronary (LAD) artery. After a few minutes' stabilization period, a 5 min occlusion of LAD artery was applied, followed by a 10 min reperfusion period. The survival rate was evaluated.

The test system of assay [2] is carnitine-palmitoyl transferase (CPTI). Kind of assay: Determination of CPTI inhibition. The class given is biochemical. To be noted: None = 100; sub-millimolar concentration range.
In assay [3] the target is Moloney murine leukemia virus reverse transcriptase (Moloney murine leukemia virus, UniProt P03355). Kind of assay: Reverse transcriptase inhibition, (3H)dTTP incorporation. The class given is biochemical. Conditions: for inhibition at 0.5 µg/mL: concentration 0.5 μg/ml; for inhibition at 1 µg/mL: concentration 1.0 μg/ml; for inhibition at 2 µg/mL: concentration 2 μg/ml; for reverse transcriptase inhibiting effect compared with Nevirapin and AZT, in words: dose dependent, lower than AZT. The method, then: The compounds may be sorted into group of the non-nucleoside type reverse transcriptase inhibitors. Tests were performed on Moloney murine leukemia virus reverse transcriptase that is considered as a good model of the HIV reverse transcriptase enzyme. The experimental assembly was the following.
The assay measures the incorporation of (3H)dTTP into cDNA using poly(dA) template and oligo(dT)12-18 primer. The reaction was carried out in 20 μl volume.
The reaction was started by addition of 5U reverse transcriptase
The reaction mixture was incubated for 40 min at 37° C. Then 15 μl of the reaction mixture was loaded on Whatman DE81 filter discs and filters were washed sequentially with 5% disodium hidrogen phosphate buffer, with water and with 96% (v/v) ethanol. After drying, the filters were placed into scintillation cocktail (OptiPhase, HiSafe, Wallac) and the radioactivity was measured in a Packard Tri-Carb 2200 scintillation counter.
Two compounds with known inhibitory activity were used in the experiments as positive control. AZT is a nucleoside analog while the compound Nevirapin is a non-nucleoside type inhibitor. Nevirapine binds to the so called benzodiazepine binding site of the enzyme. The applied concentrations of the test compounds were in the 0.2-2 μg/ml concentration range.

The target in assay [4] is T1, poly-ADP-ribose polymerase from rat liver (Rattus norvegicus, UniProt P27008).
T1 construct: We have isolated the poly-ADP-ribose polymerase from rat liver; from tissue; host or cells: rat liver
T1 sequence (P27008 whole entry): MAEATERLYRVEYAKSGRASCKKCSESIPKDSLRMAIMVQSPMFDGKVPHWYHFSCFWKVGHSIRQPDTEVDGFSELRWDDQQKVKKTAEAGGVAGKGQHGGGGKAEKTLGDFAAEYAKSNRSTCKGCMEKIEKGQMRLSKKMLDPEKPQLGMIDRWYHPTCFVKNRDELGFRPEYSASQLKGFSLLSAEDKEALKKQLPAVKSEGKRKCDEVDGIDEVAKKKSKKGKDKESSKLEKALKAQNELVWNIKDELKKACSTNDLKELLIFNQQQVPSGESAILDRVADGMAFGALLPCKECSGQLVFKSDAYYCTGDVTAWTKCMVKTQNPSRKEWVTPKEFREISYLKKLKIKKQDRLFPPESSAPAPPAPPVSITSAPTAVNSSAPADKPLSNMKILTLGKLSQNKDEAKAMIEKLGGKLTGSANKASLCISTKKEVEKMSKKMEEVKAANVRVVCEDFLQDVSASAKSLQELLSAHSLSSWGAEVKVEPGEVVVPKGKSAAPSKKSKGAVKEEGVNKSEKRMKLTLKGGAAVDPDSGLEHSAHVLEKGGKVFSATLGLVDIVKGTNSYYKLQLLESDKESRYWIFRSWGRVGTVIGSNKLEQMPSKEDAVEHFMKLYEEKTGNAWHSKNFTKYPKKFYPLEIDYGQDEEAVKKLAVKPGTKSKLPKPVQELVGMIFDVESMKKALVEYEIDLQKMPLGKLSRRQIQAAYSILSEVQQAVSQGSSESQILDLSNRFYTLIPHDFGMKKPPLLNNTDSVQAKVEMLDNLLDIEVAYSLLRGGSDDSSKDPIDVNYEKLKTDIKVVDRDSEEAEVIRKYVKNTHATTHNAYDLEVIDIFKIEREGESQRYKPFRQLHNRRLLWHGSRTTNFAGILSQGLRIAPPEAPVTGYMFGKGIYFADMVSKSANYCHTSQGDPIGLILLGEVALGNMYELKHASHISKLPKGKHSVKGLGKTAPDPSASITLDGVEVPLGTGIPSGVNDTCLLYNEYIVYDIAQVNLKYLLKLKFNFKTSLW
The experiment in a line: In vitro PARP inhibition on isolated enzyme. The class given is biochemical. To be noted: isolated rat liver enzyme; ± SEM from four parallel measurements; read-out: PARP I0.5 mg/l (converted). As for the experimental part: We have isolated the poly-ADP-ribose polymerase from rat liver according to the article Shah.G. M.,Anal Biochem, 227, 1-13 (1995).
We have determined the PARP activation in 130 μl of reaction mixture, which consists of: 100 mM Tris-HCl puffer, pH 8.0, 10 mM MgCl2, 10% glycerol, 1.5 mM DTT, 100 μg of (32P), or (3H), NAD+, 10 μg of histone. We have stopped the reaction after 10 minutes with 8% perchloric acid and seperated the protein through centrifugation (10 minutes, 10.000×g). We have washed the precipitate with 8% perchloric acid, and we measured the radioactivity connected to the protein with scintillation counter.

The next assay has as its system HepG2 cells. Kind of assay: LDH enzyme activity in hypoxia exposed HepG2 cells. The class given is cell-based. Conditions: Homo sapiens, 30 μg/ml, hypoxia 1% O2 24 hours, Hypoxic control = 100, read-out: Relative LDH content, %. As for the experimental part: HepG2 cell were cultured in DMEM medium supplemented with 10% FCS in 5% CO2 containing air at 37° C. 10^5 cells were plated in the wells of Costar 24-well culture plates in 1 ml medium. On the following day, cells were treated with the test compounds in a concentration of 30 μg/ml, then cells were exposed to hypoxia treatment (1% O2, 5% CO2 in nitrogen gas) for 24 hours. A part of the control cultures were treated with water used as the solvent, and another part of them was not exposed to hypoxia. At the end of the hypoxic treatment, medium was removed and cells were washed twice with cold PBS. Cells lysates were prepared in 0.05% Triton X-100 containing phosphate buffer (0.05 M) and after centrifugation (2 min. […]) the LDH activity of the supernatant was determined on the basis of NADH consumption in the presence of sodium piruvate substrate.
The LDH activity of the cells treated with the test compounds and compared to the activity of the control exposed to hypoxia is shown in Table 6.

Another assay relates to CD-1 female mice. Kind of assay: Prevention of streptozotocin (SZ)-induced type I diabetes mellitus on mice, blood glucose. The class given is in vivo, mouse. The method, then:
The experiments were carried out on CD-1 female mice weighing 17-19 g (Charles River, Hungary). The animals were divided into three groups. Each group consisted of 10 animals. The first group received 160 mg/kg of streptozotocin, i.p. (Sigma), the second group received 160 mg/kg of streptozotocin, and 200 mg/kg of the compound of Example 2 p.o., the third group served as the control. The blood glucose concentration was measured on the third day. The animals were killed, serum samples were taken for insulin determination, and pancreases were removed for histological studies. The blood glucose concentrations can be seen in Table 3.

Structures are written as SMILES. Structures can show the parent of a compound that is named as a salt.

With `NC(C=Cc1ccccc1)=NOCCCN1CCCCC1` [Example 1, O-(3-Piperidino-propyl)-cinnamic Acid Amidoxime Dihydrochloride], the “Activity (HSP-70 promoter luciferase)” value in assay [1] stood at 107. Also, in the assay with male SPRD rats, the responders at 1 mg/kg is 70%; the responders at 5 mg/kg stood at 46%; the “effect on survival of reperfusion arrhythmia, in words” value was “similarly outstanding effect”. In addition, the “CPTI test in %” value in assay [2] is 60.1 ± 2.1%. In assay [3] (concentration 0.2 μg/ml, read-out: Enzyme inhibition, %), the inhibition at 0.2 µg/mL came out at 6%. In assay [3] (read-out: Enzyme inhibition, %), the inhibition at 0.5 µg/mL was 29% and the inhibition at 1 µg/mL came out at 44%. In assay [4], the IC50 was 13.9 µM.

On to `COc1ccc(C=CC(N)=NOCCCN2CCCCC2)cc1OC` [Example 2, O-(3-Piperidino-propyl)-3,4-Dimethoxycinnamic Acid Amidoxime Hydrochloride], for which the activity at 30 µg/mL in the assay with HepG2 cells worked out at 118%. Moreover, in the assay on male SPRD rats, the responders at 1 mg/kg worked out at 41.7% and the responders at 5 mg/kg came to 100%. Also, the IC50 in assay [4] was 15 µM. For the same compound, in the assay on CD-1 female mice (160 mg/kg streptozotocin i.p. + 200 mg/kg compound p.o., blood, third day, control 4.78 ± 2.13), the “GLUCOSE (mean ± s.d.)” value turned out to be 8.16 ± 0.65. Besides, the “blood glucose concentration enhanced by streptozotocin, in words” value with CD-1 female mice (200 mg/kg p.o.) is on record as “remarkably reduces the blood glucose concentration”.

As for `NC(C=Cc1cccnc1)=NOCCCN1CCCCC1` [Example 3, O-(3-Piperidino-propyl)-3-(3-Pyridyl)acrylic Acid Amidoxime Hydrochloride], the “Activity (HSP-70 promoter luciferase)” value in assay [1] stood at 207. For the same compound, in the assay with male SPRD rats, the responders at 5 mg/kg turned out to be 40%. Besides, the “CPTI test in %” value in assay [2] is on record as 68.8 ± 3.2%. Further, in assay [3] (read-out: Enzyme inhibition, %), the inhibition at 0.5 µg/mL worked out at 7%, the inhibition at 1 µg/mL worked out at 45% and the inhibition at 2 µg/mL turned out to be 70%. In assay [3], the “reverse transcriptase inhibiting effect compared with Nevirapin and AZT, in words” value is “higher than that of Nevirapin”. Moreover, in assay [4], the IC50 is 8.32 µM.

Consider `NC(C=Cc1ccccc1)=NOCC(O)CN1CCCCC1` (stereo not drawn) [Example 4, O-(3-Piperidino-2-hydroxy-propyl)-cinnamic Acid Amidoxime Dihydrochloride], for which the activity at 30 µg/mL in the assay on HepG2 cells amounted to 118%. Further, the “Activity (HSP-70 promoter luciferase)” value in assay [1] was found to be 250. In the assay on male SPRD rats, the responders at 1 mg/kg worked out at 16.7%; the responders at 5 mg/kg was found to be 81.8%; the “effect on survival of reperfusion arrhythmia, in words” value is “similarly outstanding effect”. In addition, the “reverse transcriptase inhibiting effect compared with Nevirapin and AZT, in words” value in assay [3] is on record as “higher than that of Nevirapin”. Further, the IC50 in assay [4] is 27 µM.

As for `NC(C=Cc1cccnc1)=NOCC(O)CN1CCCCC1` (stereo not drawn) [Example 5, O-(3-Piperidino-2-hydroxy-propyl)-3-(3-Pyridyl)acrylic Acid Amidoxime Dihydrochloride], in assay [1], the “Activity (HSP-70 promoter luciferase)” value turned out to be 199. For the same compound, the responders at 5 mg/kg with male SPRD rats worked out at 50%. Also, in assay [3] (read-out: Enzyme inhibition, %), the inhibition at 1 µg/mL stood at 52% and the inhibition at 2 µg/mL worked out at 57%. Further, the “reverse transcriptase inhibiting effect compared with Nevirapin and AZT, in words” value in assay [3] was “higher than that of Nevirapin”. Also, the IC50 in assay [4] is 58.1 µM.

As a reminder, the inhibition is the percentage by which the read-out fell short of the control.
